Measured values from the NIST ThermoML archive (doi:10.1021/je400722h).
Numbers after ± are expanded uncertainties.

Assays:
[1] = xn = mol fraction of the nth substance listed; conditions: 101 kPa, Liquid; for speed of sound: Pulse-echo method; for mass density: Vibrating tube method
[2] = excess molar enthalpy (molar enthalpy of mixing); xn = mol fraction of the nth substance listed; conditions: 308.15 K, 101 kPa, Liquid, Power-compensation calorimetry

## Cc1ccccc1Cl [2-chlorotoluene] + C1COCO1
[1]; 298.15 K, x1 = 0.0902
  speed of sound: 1326.8 ± 1.1 m/s
  mass density: 1061.1 ± 1 kg/m3
[1]; 298.15 K, x1 = 0.1536
  speed of sound: 1320 ± 1.1 m/s
  mass density: 1062.6 ± 1 kg/m3
[1]; 298.15 K, x1 = 0.2167
  speed of sound: 1314.3 ± 1.1 m/s
  mass density: 1064 ± 1 kg/m3
[1]; 298.15 K, x1 = 0.2734
  speed of sound: 1310.1 ± 1.1 m/s
  mass density: 1065.2 ± 1 kg/m3
[1]; 298.15 K, x1 = 0.3169
  speed of sound: 1307.4 ± 1.1 m/s
  mass density: 1066.1 ± 1 kg/m3
[1]; 298.15 K, x1 = 0.3843
  speed of sound: 1303.8 ± 1.1 m/s
  mass density: 1067.5 ± 1 kg/m3
[1]; 298.15 K, x1 = 0.4301
  speed of sound: 1301.9 ± 1.1 m/s
  mass density: 1068.4 ± 1 kg/m3
[1]; 298.15 K, x1 = 0.4831
  speed of sound: 1300.1 ± 1.1 m/s
  mass density: 1069.4 ± 1 kg/m3
[1]; 298.15 K, x1 = 0.5278
  speed of sound: 1298.9 ± 1.1 m/s
  mass density: 1070.2 ± 1 kg/m3
[1]; 298.15 K, x1 = 0.5834
  speed of sound: 1297.8 ± 1.1 m/s
  mass density: 1071.2 ± 1 kg/m3
[1]; 298.15 K, x1 = 0.6265
  speed of sound: 1297.3 ± 1.1 m/s
  mass density: 1071.9 ± 1 kg/m3
[1]; 298.15 K, x1 = 0.6793
  speed of sound: 1296.8 ± 1.1 m/s
  mass density: 1072.7 ± 1 kg/m3
[1]; 298.15 K, x1 = 0.7315
  speed of sound: 1296.6 ± 1.2 m/s
  mass density: 1073.6 ± 1 kg/m3
[1]; 298.15 K, x1 = 0.7829
  speed of sound: 1296.7 ± 1.2 m/s
  mass density: 1074.4 ± 1 kg/m3
[1]; 298.15 K, x1 = 0.8242
  speed of sound: 1296.9 ± 1.2 m/s
  mass density: 1075 ± 1 kg/m3
[1]; 298.15 K, x1 = 0.8565
  speed of sound: 1297.1 ± 1.2 m/s
  mass density: 1075.4 ± 1 kg/m3
[1]; 298.15 K, x1 = 0.9013
  speed of sound: 1297.5 ± 1.2 m/s
  mass density: 1076 ± 1 kg/m3
[1]; 298.15 K, x1 = 0.9325
  speed of sound: 1297.8 ± 1.2 m/s
  mass density: 1076.5 ± 1 kg/m3
[1]; 298.15 K, x1 = 1
  speed of sound: 1298.7 ± 1.2 m/s
  mass density: 1077.3 ± 1 kg/m3
[1]; 303.15 K, x1 = 0.0902
  speed of sound: 1304.4 ± 1.1 m/s
  mass density: 1054.9 ± 1 kg/m3
[1]; 303.15 K, x1 = 0.1536
  speed of sound: 1297.8 ± 1.1 m/s
  mass density: 1056.4 ± 1 kg/m3
[1]; 303.15 K, x1 = 0.2167
  speed of sound: 1292.5 ± 1.1 m/s
  mass density: 1057.9 ± 1 kg/m3
[1]; 303.15 K, x1 = 0.2734
  speed of sound: 1288.8 ± 1.1 m/s
  mass density: 1059.3 ± 1 kg/m3
[1]; 303.15 K, x1 = 0.3169
  speed of sound: 1286.4 ± 1.1 m/s
  mass density: 1060.2 ± 1 kg/m3
[1]; 303.15 K, x1 = 0.3843
  speed of sound: 1283.5 ± 1.1 m/s
  mass density: 1061.7 ± 1 kg/m3
[1]; 303.15 K, x1 = 0.4301
  speed of sound: 1281.9 ± 1.1 m/s
  mass density: 1062.7 ± 1 kg/m3
[1]; 303.15 K, x1 = 0.4831
  speed of sound: 1280.3 ± 1.1 m/s
  mass density: 1063.7 ± 1 kg/m3
[1]; 303.15 K, x1 = 0.5278
  speed of sound: 1279.3 ± 1.1 m/s
  mass density: 1064.6 ± 1 kg/m3
[1]; 303.15 K, x1 = 0.5834
  speed of sound: 1278.4 ± 1.1 m/s
  mass density: 1065.7 ± 1 kg/m3
[1]; 303.15 K, x1 = 0.6265
  speed of sound: 1277.9 ± 1.1 m/s
  mass density: 1066.5 ± 1 kg/m3
[1]; 303.15 K, x1 = 0.6793
  speed of sound: 1277.4 ± 1.1 m/s
  mass density: 1067.4 ± 1 kg/m3
[1]; 303.15 K, x1 = 0.7315
  speed of sound: 1277.3 ± 1.2 m/s
  mass density: 1068.3 ± 1 kg/m3
[1]; 303.15 K, x1 = 0.7829
  speed of sound: 1277.4 ± 1.2 m/s
  mass density: 1069.1 ± 1 kg/m3
[1]; 303.15 K, x1 = 0.8242
  speed of sound: 1277.6 ± 1.2 m/s
  mass density: 1069.8 ± 1 kg/m3
[1]; 303.15 K, x1 = 0.8565
  speed of sound: 1277.8 ± 1.2 m/s
  mass density: 1070.3 ± 1 kg/m3
[1]; 303.15 K, x1 = 0.9013
  speed of sound: 1278.5 ± 1.2 m/s
  mass density: 1071 ± 1 kg/m3
[1]; 303.15 K, x1 = 0.9325
  speed of sound: 1279 ± 1.2 m/s
  mass density: 1071.5 ± 1 kg/m3
[1]; 303.15 K, x1 = 1
  speed of sound: 1280.7 ± 1.2 m/s
  mass density: 1072.5 ± 1 kg/m3
[1]; 308.15 K, x1 = 0.0902
  speed of sound: 1281.7 ± 1.1 m/s
  mass density: 1048.7 ± 1 kg/m3
[1]; 308.15 K, x1 = 0.1536
  speed of sound: 1275.2 ± 1.1 m/s
  mass density: 1050.4 ± 1 kg/m3
[1]; 308.15 K, x1 = 0.2167
  speed of sound: 1270.4 ± 1.1 m/s
  mass density: 1052 ± 1 kg/m3
[1]; 308.15 K, x1 = 0.2734
  speed of sound: 1267 ± 1.1 m/s
  mass density: 1053.4 ± 1 kg/m3
[1]; 308.15 K, x1 = 0.3169
  speed of sound: 1265.1 ± 1.1 m/s
  mass density: 1054.4 ± 1 kg/m3
[1]; 308.15 K, x1 = 0.3843
  speed of sound: 1262.7 ± 1.1 m/s
  mass density: 1055.9 ± 1 kg/m3
[1]; 308.15 K, x1 = 0.4301
  speed of sound: 1261.4 ± 1.1 m/s
  mass density: 1057 ± 1 kg/m3
[1]; 308.15 K, x1 = 0.4831
  speed of sound: 1260.3 ± 1.1 m/s
  mass density: 1058.1 ± 1 kg/m3
[1]; 308.15 K, x1 = 0.5278
  speed of sound: 1259.6 ± 1.1 m/s
  mass density: 1059 ± 1 kg/m3
[1]; 308.15 K, x1 = 0.5834
  speed of sound: 1258.7 ± 1.1 m/s
  mass density: 1060.2 ± 1 kg/m3
[1]; 308.15 K, x1 = 0.6265
  speed of sound: 1258.3 ± 1.1 m/s
  mass density: 1061 ± 1 kg/m3
[1]; 308.15 K, x1 = 0.6793
  speed of sound: 1258 ± 1.1 m/s
  mass density: 1062 ± 1 kg/m3
[1]; 308.15 K, x1 = 0.7315
  speed of sound: 1257.8 ± 1.1 m/s
  mass density: 1063 ± 1 kg/m3
[1]; 308.15 K, x1 = 0.7829
  speed of sound: 1257.9 ± 1.2 m/s
  mass density: 1063.9 ± 1 kg/m3
[1]; 308.15 K, x1 = 0.8242
  speed of sound: 1258.1 ± 1.2 m/s
  mass density: 1064.7 ± 1 kg/m3
[1]; 308.15 K, x1 = 0.8565
  speed of sound: 1258.5 ± 1.2 m/s
  mass density: 1065.2 ± 1 kg/m3
[1]; 308.15 K, x1 = 0.9013
  speed of sound: 1259.3 ± 1.2 m/s
  mass density: 1066 ± 1 kg/m3
[1]; 308.15 K, x1 = 0.9325
  speed of sound: 1260.1 ± 1.2 m/s
  mass density: 1066.5 ± 1 kg/m3
[1]; 308.15 K, x1 = 1
  speed of sound: 1262.7 ± 1.2 m/s
  mass density: 1067.6 ± 1 kg/m3
[2]; x1 = 0.0945
  excess molar enthalpy: 0.0361 ± 0.000478 kcal/mol
[2]; x1 = 0.1378
  excess molar enthalpy: 0.05043 ± 0.000478 kcal/mol
[2]; x1 = 0.1987
  excess molar enthalpy: 0.066 ± 0.000717 kcal/mol
[2]; x1 = 0.2396
  excess molar enthalpy: 0.07481 ± 0.000717 kcal/mol
[2]; x1 = 0.2914
  excess molar enthalpy: 0.0841 ± 0.000956 kcal/mol
[2]; x1 = 0.3467
  excess molar enthalpy: 0.0899 ± 0.000956 kcal/mol
[2]; x1 = 0.3962
  excess molar enthalpy: 0.0937 ± 0.000956 kcal/mol
[2]; x1 = 0.4532
  excess molar enthalpy: 0.0956 ± 0.000956 kcal/mol
[2]; x1 = 0.4991
  excess molar enthalpy: 0.0939 ± 0.000956 kcal/mol
[2]; x1 = 0.5432
  excess molar enthalpy: 0.0915 ± 0.000956 kcal/mol
[2]; x1 = 0.5899
  excess molar enthalpy: 0.088 ± 0.000956 kcal/mol
[2]; x1 = 0.6329
  excess molar enthalpy: 0.08198 ± 0.000717 kcal/mol
[2]; x1 = 0.6923
  excess molar enthalpy: 0.07337 ± 0.000717 kcal/mol
[2]; x1 = 0.7321
  excess molar enthalpy: 0.065 ± 0.000717 kcal/mol
[2]; x1 = 0.8021
  excess molar enthalpy: 0.05043 ± 0.000478 kcal/mol
[2]; x1 = 0.8492
  excess molar enthalpy: 0.0392 ± 0.000478 kcal/mol
[2]; x1 = 0.8912
  excess molar enthalpy: 0.0292 ± 0.000478 kcal/mol
[2]; x1 = 0.9319
  excess molar enthalpy: 0.0186 ± 0.000335 kcal/mol
